Activity calls are given as the source filed them. No cut-off for these calls is given here.
Columns and labels:
[1] = target: T1, Nuclear receptor subfamily 4 group A member 2 (Homo sapiens, UniProt P43354); experiment: Inverse agonist activity at Gal4-fused human Nurr1 LBD expressed in HEK293T cells co-expressing firefly luciferase assessed as luciferase activity by hybrid reporter gene assay; format: cell-based
[2] = tested on: HEK-293T; experiment: Cytotoxicity against human HEK293T cells assessed as reduction in cell viability upto 100 uM after 24 hrs by WST-1 assay; format: cell-based
[3] = tested on: T98G; experiment: Cytotoxicity against human T98G cells assessed as reduction in cell viability upto 100 uM after 24 hrs by WST-1 assay; format: cell-based
[4] = tested on: HEK-293T; experiment: Cytotoxicity against human HEK293T cells assessed as reduction in cell viability at >30 uM after 24 hrs by WST-1 assay; format: cell-based
[5] = target: T1, Nuclear receptor subfamily 4 group A member 2; experiment: Inverse agonist activity at human Nurr1 LBD assessed as inhibition of heterodimerization of Nurr1 with RXRalpha after 2 hrs by HTRF assay
[6] = target: T1, Nuclear receptor subfamily 4 group A member 2; experiment: Inverse agonist activity at human Nurr1 LBD assessed as displacement of NCoR2 from Nurr1 after 2 hrs by HTRF assay
[7] = target: T1, Nuclear receptor subfamily 4 group A member 2; experiment: Inverse agonist activity at Gal4-fused human Nurr1 LBD expressed in HEK293T cells co-expressing firefly luciferase assessed as luciferase activity in presence of AQ by hybrid reporter gene assay; format: cell-based
[8] = target: T1, Nuclear receptor subfamily 4 group A member 2; experiment: Inverse agonist activity at human Nurr1 LBD assessed as inhibition of SRC1-Nurr1 interaction after 2 hrs by HTRF assay
[9] = tested on: T98G; experiment: Cytotoxicity against human T98G cells assessed as reduction in cell viability at >30 uM after 24 hrs by WST-1 assay; format: cell-based
[10] = target: T1, Nuclear receptor subfamily 4 group A member 2; experiment: Inverse agonist activity at human Nurr1 LBD assessed as displacement of NCoR1 from Nurr1 after 2 hrs by HTRF assay
[11] = target: T1, Nuclear receptor subfamily 4 group A member 2; experiment: Inverse agonist activity at human Nurr1 LBD assessed as inhibition of NCoA6-Nurr1 interaction after 2 hrs by HTRF assay
[12] = target: T1, Nuclear receptor subfamily 4 group A member 2; experiment: Inverse agonist activity at human Nurr1 LBD assessed as inhibition of CBP1-Nurr1 interaction after 2 hrs by HTRF assay
[13] = target: T1, Nuclear receptor subfamily 4 group A member 2; experiment: Inverse agonist activity at Gal4-fused human Nurr1 monomer response element NBRE expressed in HEK293T cells co-expressing firefly luciferase assessed as luciferase activity by hybrid reporter gene assay; format: cell-based
[14] = target: T1, Nuclear receptor subfamily 4 group A member 2; experiment: Inverse agonist activity at human Nurr1 LBD assessed as inhibition of Nurr1 homodimerization after 2 hrs by HTRF assay; conditions: filed as inverse agonist
[15] = target: T1, Nuclear receptor subfamily 4 group A member 2; experiment: Agonist activity at Gal4-fused human Nurr1 LBD expressed in HEK293T cells co-expressing firefly luciferase assessed as luciferase activity in presence of 5-(Pyridin-3-yl)-1-methylindole-3-carboxylic Acid Methyl Ester by hybrid reporter gene assay; format: cell-based
[16] = target: T1, Nuclear receptor subfamily 4 group A member 2; experiment: Agonist activity at Gal4-fused human Nurr1 LBD expressed in HEK293T cells co-expressing firefly luciferase assessed as luciferase activity by hybrid reporter gene assay; format: cell-based
[17] = target: T1, Nuclear receptor subfamily 4 group A member 2; experiment: Agonist activity at Gal4-fused human Nurr1 LBD expressed in HEK293T cells co-expressing firefly luciferase assessed as fold increase in luciferase activity by hybrid reporter gene assay relative to control; format: cell-based; conditions: filed as agonist

T1 sequence (P43354 whole entry, the tested form may be a part): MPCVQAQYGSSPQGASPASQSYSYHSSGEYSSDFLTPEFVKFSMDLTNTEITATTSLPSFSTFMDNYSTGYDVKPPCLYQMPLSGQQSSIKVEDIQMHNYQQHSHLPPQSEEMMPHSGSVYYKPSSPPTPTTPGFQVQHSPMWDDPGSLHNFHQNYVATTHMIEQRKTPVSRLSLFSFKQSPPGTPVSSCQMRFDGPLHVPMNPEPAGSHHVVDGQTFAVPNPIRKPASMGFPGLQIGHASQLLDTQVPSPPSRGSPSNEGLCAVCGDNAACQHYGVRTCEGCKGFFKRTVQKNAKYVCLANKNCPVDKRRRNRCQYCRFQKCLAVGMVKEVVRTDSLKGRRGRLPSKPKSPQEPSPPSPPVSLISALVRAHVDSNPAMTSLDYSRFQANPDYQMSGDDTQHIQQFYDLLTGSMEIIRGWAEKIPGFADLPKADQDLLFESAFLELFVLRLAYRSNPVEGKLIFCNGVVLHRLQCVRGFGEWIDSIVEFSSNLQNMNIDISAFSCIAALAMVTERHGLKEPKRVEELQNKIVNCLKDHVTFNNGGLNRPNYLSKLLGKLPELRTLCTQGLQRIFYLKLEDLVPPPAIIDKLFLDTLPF

IC50 ([1]; hek293t) | IC50 ([1]; read-out: IC50) | Structure (SMILES) | also measured
Not Active |  | CC(=O)c1c[nH]c2ccccc12 | 
Not Active |  | O=C(O)c1c[nH]c2ccccc12 | 
 | 55 µM | COC(=O)c1c[nH]c2cccc(Cl)c12 | 
Not Active |  | CCOC(=O)c1c[nH]c2ccccc12 | 
 | > 30 µM | CN(C)C(=O)c1cn(C)c2ccc(-c3ccccc3)cc12 | 
 | 35 µM | COC(=O)c1c[nH]c2c(C)cccc12 | 
 | 3.8 µM | COC(=O)c1cn(C)c2ccc(-c3cccnc3)cc12 | Activity [4]: Toxic; Activity [5]: inactive; IC50 [6]: 29 µM; IC50 [7]: 3.7 µM; Activity [8]: inactive; Activity [9]: Toxic; IC50 [10]: 57 µM; Activity [11]: inactive; Activity [12]: inactive; IC50 [13]: 10 µM; Activity [14]: Dose-Dependent Effect
Not Active |  | COC(=O)c1c[nH]c2ccc(Cc3ccccc3)cc12 | 
 | 21 µM | COC(=O)c1cn(C)c2ccccc12 | 
 | 19 µM | COC(=O)c1c[nH]c2c(Cl)cccc12 | 
 | 48 µM | COC(=O)c1c[nH]c2ccccc12 | 
Not Active |  | CCNC(=O)c1cn(C)c2ccc(-c3ccccc3)cc12 | 
Not Active |  | COC(=O)c1c[nH]c2c(OC)cccc12 | 
 | 14 µM | CNC(=O)c1cn(C)c2ccc(-c3ccccc3)cc12 | 
 | 53 µM | COC(=O)c1c(C)[nH]c2ccccc12 | 
 | 34 µM | COC(=O)c1c(Cl)[nH]c2ccccc12 | 
 | 11 µM | COC(=O)c1cn(C)c2c(Cl)cc(-c3cccnc3)cc12 | 

Continued, molecule first:

Structure (SMILES) | IC50 ([1]; hek293t) | IC50 ([1]; read-out: IC50) | also measured
COC(=O)c1c[nH]c2ccc(Br)cc12 |  | 15 µM | 
COC(=O)c1c[nH]c2ccc(OC)cc12 |  | 23 µM | 
COC(=O)c1c[nH]c2ccc(C)cc12 |  | 20 µM | 
CCn1cc(C(=O)OC)c2ccccc21 |  | 31 µM | 
COC(=O)c1cn(C)c2ccc(-c3ccccc3)cc12 |  |  | Activity [2]: Non-Toxic; Activity [3]: Non-Toxic
COC(=O)c1c[nH]c2ccc(Cl)cc12 |  | 24 µM | 
O=Cc1c[nH]c2ccccc12 [3-FORMYLINDOLE] | Not Active |  | 
COC(=O)c1c[nH]c2cccc(C)c12 | Not Active |  | 
CCN(CC)Cc1cc(Nc2ccnc3cc(Cl)ccc23)ccc1O [AMODIAQUINE] |  |  | EC50 [15]: 82 µM; EC50 [16]: 41 µM
COC(=O)c1cn(-c2ccccc2)c2ccccc12 |  |  | fold change (FC) [17]: 1.9; EC50 [16]: 81 µM
O=C(Oc1ccccc1)c1c[nH]c2ccccc12 |  |  | fold change (FC) [17]: 1.93; EC50 [16]: 11 µM
CC(C)(C)OC(=O)c1c[nH]c2ccccc12 | Not Active |  | 
COC(=O)c1c[nH]c2cc(C)ccc12 |  | 57 µM | 
COC(=O)c1cn(Cc2ccccc2)c2ccccc12 | Not Active |  | 
CCC(=O)c1c[nH]c2ccccc12 | Not Active |  | 

— ChEMBL document CHEMBL4837262, “Development and Profiling of Inverse Agonist Tools for the Neuroprotective Transcription Factor Nurr1” (J Med Chem, 2021)
